Experimental data from PMC2707017, “Synthesis and enzymatic evaluation of 2- and 4-aminothiazole-based inhibitors of neuronal nitric oxide synthase” (Beilstein Journal of Organic Chemistry, 2009).
Each block holds one compound with its values, some of them ahead of it.

Key:
rat nNOS [1] = biological target: T1, rat nNOS (Rattus norvegicus, UniProt P29476); conditions: cited from earlier work
bovine eNOS [2] = biological target: T2, bovine eNOS (Bos taurus, UniProt P29473); conditions: nNOS over eNOS; cited from earlier work
neuronal damage = test system: neuronal damage; set-up: method as in PMID 19235180; conditions: intravenous administration, cerebral palsy rabbit model; cited from earlier work
[3] = set-up: method as in printed; conditions: aminothiazole ring nitrogen; stated without measurement, ref not given; cited from earlier work
rat nNOS [4] = biological target: T1, rat nNOS; assay: hemoglobin capture assay, nNOS
Description: In vitro enzyme assay. The NOS isoforms used were recombinant enzymes overexpressed in E. coli. Rat nNOS [6], bovine eNOS [7], and murine macrophage iNOS [8], and were overexpressed and isolated as reported. The formation of nitric oxide was monitored using a hemoglobin capture assay as described previously. […] For the determination of inhibition of iNOS, no additional Ca^2+ or calmodulin were added. The assay was initiated by the addition of enzyme, and the absorption of UV light at 400 nm was recorded over one minute. As NO was evolved and coordinated to the hemoglobin, the absorption at 400 nm increased, producing a value for the enzyme velocity under these conditions. A value for the initial rate was obtained when no inhibitor was added (v0). The velocity of the enzyme (v) was then determined in the presence of varying concentrations of inhibitor, until a concentration of inhibitor that reduced the enzyme velocity to half its initial value (v/v0 ~ 0.5) was discovered. Concentrations of inhibitor above and below this value were tested and a graph of v/v0 versus inhibitor concentration ([I]) was plotted. Experiments were repeated at least three times and until a R^2 >0.99 was obtained. Extrapolation of this graph allowed the determination of an IC50 value. The Ki can be estimated from the IC50 if the Km for the substrate is known, using the equations below.

bovine eNOS [5] = biological target: T2, bovine eNOS; assay: hemoglobin capture assay, eNOS
Description: (§1) The NOS isoforms used were recombinant enzymes overexpressed in E. coli. Rat nNOS [6], bovine eNOS [7], and murine macrophage iNOS [8], and were overexpressed and isolated as reported. The formation of nitric oxide was monitored using a hemoglobin capture assay as described previously. Briefly, a solution of nNOS or eNOS containing 10 µM L-arginine, 1.6 mM CaCl2, 11.6 µg/mL calmodulin, 100 µM DTT, 100 µM NADPH, 6.5 µM H4B, 125 µg/mL oxyhemoglobin, and varying concentrations of inhibitor in 100 mM Hepes (pH 7.4) was monitored at 30 °C. For the determination of inhibition of iNOS, no additional Ca^2+ or calmodulin were added. The assay was initiated by the addition of enzyme, and the absorption of UV light at 400 nm was recorded over one minute. As NO was evolved and coordinated to the hemoglobin, the absorption at 400 nm increased, producing a value for the enzyme velocity under these conditions. A value for the initial rate was obtained when no inhibitor was added (v0). The velocity of the enzyme (v) was then determined in the presence of varying concentrations of inhibitor, until a concentration of inhibitor that reduced the enzyme velocity to half its initial value (v/v0 ~ 0.5) was discovered. Concentrations of inhibitor above and below this value were tested and a graph of v/v0 versus inhibitor concentration ([I]) was plotted. […]

murine iNOS = murine iNOS (Mus musculus, UniProt P29477); assay: hemoglobin capture assay, iNOS
Description: as §1

Structure (SMILES): NCCN[C@@H]1CNC[C@@H]1Cc1cccc(N)n1 (relative stereo) [Compound 1]
- nNOS inhibitory potency (rat nNOS [1]): nanomolar
- selectivity over eNOS (bovine eNOS [2]): more than 1000 fold

Structure (SMILES): Cc1cc(N)nc(C[C@H]2CNC[C@H]2NCCNCc2ccc(Cl)cc2)c1 (relative stereo) [Compound 2]
- protection against neuronal damage (neuronal damage): significant protection against neuronal damage

- Ki (rat nNOS [4]): 10 µM
- Ki (bovine eNOS [5]): 1 mM
- Ki (murine iNOS): 50 µM
Structure (SMILES): Nc1nc(CC2CNCC2NCCNCc2ccc(Cl)cc2)cs1 (stereo not shown) [Compound 3]
- pKa of ring nitrogen [3]: ≈ 6
